Measurements as given in the NIST ThermoML archive (doi:10.1021/acs.jced.5b00474).
Numbers after ± are expanded uncertainties.

Experiment: xn = mol fraction of the nth substance listed
Conditions: 101 kPa, Liquid; for mass density: Vibrating tube method; for speed of sound: Frequency=3 MHz, Sing-around technique in a fixed-path interferometer

CN1CCCC1=O [N-methylpyrrolidone] + CC#N
Conditions | mass density [kg/m3] | speed of sound [m/s]
293.15 K, x1 = 0.0997 | 826.597 ± 0.51 | –
293.15 K, x1 = 0.2019 | 865.011 ± 0.51 | –
293.15 K, x1 = 0.2953 | 895.168 ± 0.51 | –
293.15 K, x1 = 0.4033 | 925.343 ± 0.51 | –
293.15 K, x1 = 0.4999 | 948.634 ± 0.51 | –
293.15 K, x1 = 0.5645 | 962.588 ± 0.51 | –
293.15 K, x1 = 0.6971 | 987.869 ± 0.51 | –
293.15 K, x1 = 0.7909 | 1002.68 ± 0.51 | –
293.15 K, x1 = 0.8906 | 1018.29 ± 0.51 | –
293.15 K, x1 = 1 | 1032.25 ± 0.51 | –
298.15 K, x1 = 0.0997 | 821.365 ± 0.52 | 1311.6 ± 0.88
298.15 K, x1 = 0.2019 | 859.919 ± 0.52 | 1345.4 ± 0.89
298.15 K, x1 = 0.2953 | 890.188 ± 0.52 | 1375 ± 0.89
298.15 K, x1 = 0.4033 | 920.48 ± 0.51 | 1407.6 ± 0.9
298.15 K, x1 = 0.4999 | 943.847 ± 0.51 | 1434.4 ± 0.91
298.15 K, x1 = 0.5645 | 957.857 ± 0.51 | 1450.8 ± 0.92
298.15 K, x1 = 0.6971 | 983.231 ± 0.51 | 1483.7 ± 0.92
298.15 K, x1 = 0.7909 | 998.089 ± 0.51 | 1503.3 ± 0.94
298.15 K, x1 = 0.8906 | 1013.76 ± 0.51 | 1524.8 ± 0.93
298.15 K, x1 = 1 | 1027.79 ± 0.51 | 1544.6 ± 0.94
303.15 K, x1 = 0.0997 | 816.101 ± 0.52 | 1291.8 ± 0.88
303.15 K, x1 = 0.2019 | 854.802 ± 0.52 | 1325.7 ± 0.89
303.15 K, x1 = 0.2953 | 885.193 ± 0.52 | 1355.4 ± 0.89
303.15 K, x1 = 0.4033 | 915.6 ± 0.51 | 1387.9 ± 0.91
303.15 K, x1 = 0.4999 | 939.067 ± 0.51 | 1414.8 ± 0.91
303.15 K, x1 = 0.5645 | 953.126 ± 0.51 | 1430.7 ± 0.92
303.15 K, x1 = 0.6971 | 978.597 ± 0.51 | 1463.6 ± 0.93
303.15 K, x1 = 0.7909 | 993.514 ± 0.51 | 1483.2 ± 0.93
303.15 K, x1 = 0.8906 | 1009.25 ± 0.51 | 1505.1 ± 0.93
303.15 K, x1 = 1 | 1023.33 ± 0.51 | 1525.3 ± 0.93
308.15 K, x1 = 0.0997 | 810.812 ± 0.52 | 1272 ± 0.88
308.15 K, x1 = 0.2019 | 849.665 ± 0.52 | 1306 ± 0.88
308.15 K, x1 = 0.2953 | 880.18 ± 0.52 | 1335.8 ± 0.89
308.15 K, x1 = 0.4033 | 910.709 ± 0.51 | 1367.7 ± 0.9
308.15 K, x1 = 0.4999 | 934.271 ± 0.51 | 1394.8 ± 0.91
308.15 K, x1 = 0.5645 | 948.386 ± 0.51 | 1410.4 ± 0.91
308.15 K, x1 = 0.6971 | 973.957 ± 0.51 | 1443.4 ± 0.92
308.15 K, x1 = 0.7909 | 988.935 ± 0.51 | 1462.8 ± 0.93
308.15 K, x1 = 0.8906 | 1004.73 ± 0.51 | 1485.2 ± 0.93
308.15 K, x1 = 1 | 1018.87 ± 0.51 | 1506 ± 0.93
313.15 K, x1 = 0.0997 | 805.495 ± 0.52 | 1252.2 ± 0.87
313.15 K, x1 = 0.2019 | 844.503 ± 0.52 | 1286.4 ± 0.88
313.15 K, x1 = 0.2953 | 875.146 ± 0.52 | 1316.3 ± 0.88
313.15 K, x1 = 0.4033 | 905.801 ± 0.51 | 1347.6 ± 0.9
313.15 K, x1 = 0.4999 | 929.461 ± 0.51 | 1374.7 ± 0.9
313.15 K, x1 = 0.5645 | 943.637 ± 0.51 | 1390.2 ± 0.91
313.15 K, x1 = 0.6971 | 969.311 ± 0.51 | 1423.3 ± 0.92
313.15 K, x1 = 0.7909 | 984.35 ± 0.51 | 1442.6 ± 0.92
313.15 K, x1 = 0.8906 | 1000.21 ± 0.51 | 1465.5 ± 0.92
313.15 K, x1 = 1 | 1014.41 ± 0.51 | 1486.8 ± 0.92
318.15 K, x1 = 0.0997 | 800.149 ± 0.52 | 1232.4 ± 0.87
318.15 K, x1 = 0.2019 | 839.318 ± 0.52 | 1266.8 ± 0.87
318.15 K, x1 = 0.2953 | 870.091 ± 0.52 | 1296.9 ± 0.88
318.15 K, x1 = 0.4999 | 924.64 ± 0.51 | 1354.8 ± 0.9
318.15 K, x1 = 0.7909 | 979.759 ± 0.51 | 1422.4 ± 0.92
318.15 K, x1 = 0.8906 | 995.681 ± 0.51 | 1445.9 ± 0.92
318.15 K, x1 = 1 | 1009.95 ± 0.51 | 1467.8 ± 0.92
318.16 K, x1 = 0.4033 | 900.875 ± 0.51 | 1327.4 ± 0.89
318.16 K, x1 = 0.5645 | 938.874 ± 0.51 | 1370.2 ± 0.9
318.16 K, x1 = 0.6971 | 964.657 ± 0.51 | 1403.3 ± 0.91
323.15 K, x1 = 0.4033 | 895.938 ± 0.52 | 1307.5 ± 0.88
323.16 K, x1 = 0.0997 | 794.775 ± 0.54 | 1212.6 ± 0.86
323.16 K, x1 = 0.2019 | 834.109 ± 0.53 | 1247.3 ± 0.87
323.16 K, x1 = 0.2953 | 865.017 ± 0.52 | 1277.6 ± 0.89
323.16 K, x1 = 0.4999 | 919.805 ± 0.52 | 1335 ± 0.9
323.16 K, x1 = 0.5645 | 934.1 ± 0.52 | 1350.3 ± 0.89
323.16 K, x1 = 0.6971 | 959.996 ± 0.52 | 1383.4 ± 0.92
323.16 K, x1 = 0.7909 | 975.164 ± 0.51 | 1402.4 ± 0.9
323.16 K, x1 = 0.8906 | 991.156 ± 0.51 | 1426.5 ± 0.92
323.16 K, x1 = 1 | 1005.48 ± 0.51 | 1448.9 ± 0.91

ClC(Cl)Cl [trichloromethane] + CN1CCCC1=O
Conditions | mass density [kg/m3] | speed of sound [m/s]
293.14 K, x2 = 0.1079 | 1437.79 ± 0.56 | 1051.6 ± 0.8
293.15 K, x2 = 0 | 1488.55 ± 0.57 | 1000.9 ± 0.78
293.15 K, x2 = 0.1061 | 1438.96 ± 0.56 | 1050 ± 0.79
293.15 K, x2 = 0.2054 | 1390.74 ± 0.55 | 1098.6 ± 0.81
293.15 K, x2 = 0.2994 | 1345.24 ± 0.54 | 1146 ± 0.81
293.15 K, x2 = 0.4032 | 1294.06 ± 0.54 | 1198.4 ± 0.84
293.15 K, x2 = 0.4961 | 1249.81 ± 0.53 | 1248.4 ± 0.85
293.15 K, x2 = 0.6006 | 1201.33 ± 0.53 | 1307.8 ± 0.87
293.15 K, x2 = 0.6854 | 1163.12 ± 0.52 | 1359.8 ± 0.88
293.15 K, x2 = 0.7986 | 1114.37 ± 0.52 | 1430.8 ± 0.92
298.14 K, x2 = 0.1079 | 1429.34 ± 0.56 | 1034.9 ± 0.79
298.14 K, x2 = 0.2994 | 1338.24 ± 0.54 | 1130.2 ± 0.81
298.14 K, x2 = 0.7986 | 1109.43 ± 0.52 | 1413 ± 0.9
298.15 K, x2 = 0 | 1479.07 ± 0.57 | 984.33 ± 0.78
298.15 K, x2 = 0.2054 | 1383.07 ± 0.55 | 1082.1 ± 0.81
298.15 K, x2 = 0.4032 | 1287.66 ± 0.54 | 1181.9 ± 0.83
298.15 K, x2 = 0.4961 | 1243.85 ± 0.53 | 1231.9 ± 0.84
298.15 K, x2 = 0.6006 | 1195.78 ± 0.52 | 1290.7 ± 0.86
298.15 K, x2 = 0.6854 | 1157.85 ± 0.52 | 1342.1 ± 0.88
298.16 K, x2 = 0.1061 | 1430.5 ± 0.56 | 1033.6 ± 0.79
303.14 K, x2 = 0.1079 | 1420.85 ± 0.56 | 1018.3 ± 0.8
303.14 K, x2 = 0.2994 | 1331.2 ± 0.54 | 1114.1 ± 0.81
303.14 K, x2 = 0.7986 | 1104.48 ± 0.52 | 1395.1 ± 0.89
303.15 K, x2 = 0.1061 | 1422 ± 0.56 | 1016.3 ± 0.8
303.15 K, x2 = 0.2054 | 1375.36 ± 0.55 | 1065.2 ± 0.8
303.15 K, x2 = 0.4032 | 1281.24 ± 0.54 | 1165.2 ± 0.83
303.15 K, x2 = 0.4961 | 1237.89 ± 0.53 | 1215.2 ± 0.84
303.15 K, x2 = 0.6006 | 1190.22 ± 0.52 | 1273.5 ± 0.86
303.15 K, x2 = 0.6854 | 1152.57 ± 0.52 | 1324.2 ± 0.87
303.16 K, x2 = 0 | 1469.52 ± 0.57 | 967.53 ± 0.78
308.14 K, x2 = 0.1079 | 1412.32 ± 0.56 | 1001.8 ± 0.78
308.14 K, x2 = 0.2994 | 1324.14 ± 0.54 | 1098.1 ± 0.82
308.14 K, x2 = 0.7986 | 1099.52 ± 0.51 | 1377.3 ± 0.88
308.15 K, x2 = 0 | 1459.91 ± 0.57 | 950.62 ± 0.78
308.15 K, x2 = 0.1061 | 1413.45 ± 0.56 | 999.25 ± 0.8
308.15 K, x2 = 0.2054 | 1367.63 ± 0.55 | 1048.3 ± 0.79
308.15 K, x2 = 0.4032 | 1274.79 ± 0.53 | 1148.5 ± 0.81
308.15 K, x2 = 0.4961 | 1231.6 ± 0.53 | 1198.6 ± 0.83
308.15 K, x2 = 0.6006 | 1184.64 ± 0.52 | 1256.3 ± 0.84
308.15 K, x2 = 0.6854 | 1147.28 ± 0.52 | 1306.2 ± 0.86
